From patent publication US12286435B2, “Compound having benzo seven-membered ring structure, preparation method therefor, and use thereof” (BIONNA (BEIJING) MEDICAL TECHNOLOGY CO., LTD., priority 2019, dated 2025)
Values joined by “and” are separate entries in the source; they are usually repeats but may differ in a detail not shown here. Equal entries are not always repeated. Structures can show the parent of a compound that is named as a salt.

How the values were obtained:
BRD4 BD1 protein = BRD4 BD1 protein (Homo sapiens (Human), UniProt O60885); test: Fluorescence polarization binding affinity (Ki) with BRD4 BD1 protein; conditions: fluorescence polarization; Ki calculated from IC50
BRD4 BD2 protein = BRD4 BD2 protein (Homo sapiens (Human), UniProt O60885); test: Fluorescence polarization binding affinity (Ki) with BRD4 BD2 protein; conditions: fluorescence polarization; Ki calculated from IC50
[1] = tested on: multiple myeloma MM.1S cell line; test: Cell viability (CCK-8), multiple myeloma MM.1S; type: cell-based; conditions: MM.1S cells, 4 days, CCK-8, 50% inhibition of cell growth
Outline: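 Cells (about 3000-5000 per well) exposed to 3-fold serial dilutions of compound for 4 days at 37° C, 5% CO2. CCK-8 added 2-4 h, absorbance at 450 nm, viability normalised to untreated cells after medium-only blank subtraction; IC50 is concentration giving 50% growth inhibition.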

Structure (SMILES)	Ki (BRD4 BD1 protein)	Ki (BRD4 BD2 protein)	IC50 ([1]; Homo sapiens, MM1.S, 96 h)	IC50 [1]
Cc1nnn2c1-c1ccc(-c3cncnc3)cc1C(Nc1ccc(Cl)cc1)CC2 (stereo not drawn) [RB06, N-(4-chlorophenyl)-1-methyl-9-(pyrimidin-5-yl)-6,7-dihydro-5H-benzo[c][1,2,3]triazolo[1,5-a]azepin-7-amine]	129 nM	15.4 nM	53.2 nM	–
Cc1nnn2c1-c1ccc(-c3cnn(C)c3)cc1C(Nc1ccccc1C(=O)O)CC2 (stereo not drawn) [LB173, 2-((1-methyl-9-(1-methyl-1H-pyrazol-4-yl)-6,7-dihydro-5H-benzo[c][1,2,3]triazolo[1,5-a]azepin-7-yl)amino)benzoic acid]	179 nM	32.1 nM	1200 nM	–
COC(=O)c1cccc(NC2CCn3nnc(C)c3-c3ccc(-c4cnn(C)c4)cc32)c1 (stereo not drawn) [LB92, methyl 3-((1-methyl-9-(1-methyl-1H-pyrazol-4-yl)-6,7-dihydro-5H-benzo[c][1,2,3]triazolo[1,5-a]azepin-7-yl)amino)benzoate]	133 nM	17.9 nM	121 nM	–
Cc1nnn2c1-c1ccc(-c3cccnc3)cc1C(Nc1ccc(Cl)cc1)CC2 (stereo not drawn) [RA193, N-(4-chlorophenyl)-1-methyl-9-(pyridin-3-yl)-6,7-dihydro-5H-benzo[c][1,2,3]triazolo[1,5-a]azepin-7-amine]	52 nM	11.1 nM	50.5 nM	–
Cc1nnn2c1-c1ccc(-c3cnn(C)c3)cc1C(Nc1ccc(C(O)(C(F)(F)F)C(F)(F)F)cc1)CC2 (stereo not drawn) [LB83, 1,1,1,3,3,3-hexafluoro-2-(4-((1-methyl-9-(1-methyl-1H-pyrazol-4-yl)-6,7-dihydro-5H-Benzo[c][1,2,3]triazolo[1,5-a]azepin-7-yl)amino)phenyl)propan-2-ol]	180 nM	38.4 nM	250 nM	–
Cc1nnn2c1-c1ccc(C3=CCNCC3)cc1C(Nc1cccc(OCCO)c1)CC2 (stereo not drawn) [LC56, 2-(3-((1-methyl-9-(1,2,3,6-tetrahydropyridin-4-yl)-6,7-dihydro-5H-benzo[c][1,2,3]triazolo[1,5-a]azepin-7-yl)amino)phenoxy)ethan-1-ol 2,2,2-trifluoroacetate]	1520 nM	70.3 nM	2890 nM	–
Cc1nnn2c1-c1ccc(-c3cnn(C)c3)cc1C(Nc1ccccc1CCO)CC2 (stereo not drawn) [LA198, 2-(2-((1-methyl-9-(1-methyl-1H-pyrazol-4-yl)-6,7-dihydro-5H-benzo[c][1,2,3]triazolo[1,5-a]azepin-7-yl)amino)phenyl)ethan-1-ol]	44 nM	21.4 nM	22.9 nM	–
CNC(=O)Cc1ccc(NC2CCn3nnc(C)c3-c3ccc(-c4cnn(C)c4)cc32)cc1 (stereo not drawn) [LB142]	69 nM	11.4 nM	–	114 nM
Cc1nnn2c1-c1ccc(-c3cnn(C)c3)cc1C(Nc1ccc(CN(C)C)cc1)CC2 (stereo not drawn) [LB138, N-(4-((dimethylamino)methyl)phenyl)-1-methyl-9-(1-methyl-1H-pyrazol-4-yl)-6,7-dihydro-5H-benzo[c][1,2,3]triazolo[1,5-a]azepin-7-amine]	1040 nM	203 nM	961 nM	–
Cc1nnn2c1-c1ccc(-c3cnn(C)c3)cc1C(Nc1ccccc1CC(=O)O)CC2 (stereo not drawn) [LB185, 2-(2-((1-methyl-9-(1-methyl-1H-pyrazol-4-yl)-6,7-dihydro-5H-benzo[c][1,2,3]triazolo[1,5-a]azepin-7-yl)amino)phenyl)acetic acid]	218 nM	14.5 nM	1620 nM	–
Cc1nnn2c1-c1ccc(-c3cnn(C)c3)cc1C(N(C)c1ccc(Cl)cc1)CC2 (stereo not drawn) [RB66, N-(4-chlorophenyl)-N,1-dimethyl-9-(1-methyl-1H-pyrazol-4-yl)-6,7-dihydro-5H-benzo[c][1,2,3]triazolo[1,5-a]azepin-7-amine]	62.9 nM	9 nM	31.3 nM	–
Cn1cc(-c2ccc3c(c2)C(Nc2ccc(Cl)cc2)CCn2nnc(C4CC4)c2-3)cn1 (stereo not drawn) [BE44, N-(4-chlorophenyl)-1-cyclopropyl-9-(1-methyl-1H-pyrazol-4-yl)-6,7-dihydro-5H-benzo[c][1,2,3]triazolo[1,5-a]azepin-7-amine]	173 nM	48.1 nM	989 nM	–
Cc1nnn2c1-c1ccc(-c3cnn(C)c3)cc1C(Oc1ccc(F)cc1F)CC2 (stereo not drawn) [BE95, 7-(2,4-difluorophenoxy)-1-methyl-9-(1-methyl-1H-pyrazol-4-yl)-6,7-dihydro-5H-benzo[c][1,2,3]triazolo[1,5-a]azepine]	577 nM	86.9 nM	3190 nM	–
Cc1nnn2c1-c1ccc(C3=CCNCC3)cc1C(Nc1ccc(Cl)cc1)CC2 (stereo not drawn) [RB99, N-(4-chlorophenyl)-1-methyl-9-(1,2,3,6-tetrahydropyridin-4-yl)-6,7-dihydro-5H-benzo[c][1,2,3]triazolo[1,5-a]azepin-7-amine hydrochloride]	422 nM	19.4 nM	215 nM	–
Cc1nnn2c1-c1ccc(-c3cncc4[nH]ccc34)cc1C(Nc1ccc(Cl)cc1)CC2 (stereo not drawn) [RB90, N-(4-chlorophenyl)-1-methyl-9-(1H-pyrrolo[2,3-c]pyridin-4-yl)-6,7-dihydro-5H-benzo[c][1,2,3]triazolo [1,5-a]azepin-7-amine]	104 nM	35.2 nM	257 nM	–
Cc1nnn2c1-c1ccc(-c3cnn(C)c3)cc1C(Nc1ccnn1C)CC2 (stereo not drawn) [BE118, 1-methyl-9-(1-methyl-1H-pyrazol-4-yl)-N-(1-methyl-1H-pyrazol-5-yl)-6,7-dihydro-5H-benzo[c][1,2,3] triazolo[1,5-a]azepin-7-amine]	272 nM	23.6 nM	604 nM	–
Cc1nnn2c1-c1ccc(-c3cnn(C)c3)cc1C(Nc1cccc(CC(=O)O)c1)CC2 (stereo not drawn) [LB62, 2-(3-((1-methyl-9-(1-methyl-1H-pyrazol-4-yl)-6,7-dihydro-5H-benzo[c][1,2,3]triazolo[1,5-a]azepin-7-yl)amino)phenyl) acetic acid]	229 nM	13 nM	14000 nM	–
Cc1nnn2c1-c1ccc(-c3cnn(C)c3)cc1C(Nc1cccc(CN(C)C)c1)CC2 (stereo not drawn) [LC31, N-(3-((dimethylamino)methyl)phenyl)-1-methyl-9-(1-methyl-1H-pyrazol-4-yl)-6,7-dihydro-5H-benzo[c][1,2,3]triazolo[1,5-a]azepin-7-amine]	92.6 nM	20.9 nM	27.9 nM	–
COc1ccc2c(c1)C(Nc1ccc(F)cc1)CCc1onc(C)c1-2 (stereo not drawn) [BB189, N-(4-fluorophenyl)-8-methoxy-1-methyl-5,6-dihydro-4H-benzo[6,7]cyclohepta[1,2-d]isoxazol-6-amine]	172 nM	92.1 nM	230 nM	–
Cc1nnn2c1-c1ccc(-c3ccncc3)cc1C(Nc1ccc(Cl)cc1)CC2 (stereo not drawn) [RA188, N-(4-chlorophenyl)-1-methyl-9-(pyridin-4-yl)-6,7-dihydro-5H-benzo[c][1,2,3]triazolo[1,5-a]azepin-7-amine]	73.7 nM	17.1 nM	8.54 nM	–
COc1cccc(NC2CCn3nnc(C)c3-c3ccc(C4=CCN(C(C)C)CC4)cc32)c1 (stereo not drawn) [BH37, 9-(1-isopropyl-1,2,3,6-tetrahydropyridin-4-yl)-N-(3-methoxyphenyl)-1-methyl-6,7-dihydro-5H-benzo[c][1,2,3]triazolo[1,5-a]azepin-7-amine 2,2,2-trifluoroacetate]	1880 nM and 1560 nM	61.9 nM and 28.3 nM	352 nM	–
